Patent US20250263424A1, “KRAS INHIBITORS” (Bristol-Myers Squibb Company, priority 2022, published 2025)

What follows are molecules tested against Recombinant GMPPNP-loaded KRAS G12C (KRAS-G12C(ON), active form) (Homo sapiens, UniProt P01116, G12C) (assay: KRAS G12C RAF Disruption Assay (HTRF)). Conditions: GMPPNP-loaded KRAS G12C 5 nM, GST-RAF1 RBD 9 nM, values given in μM, read-out: KRASG12C RAF Disruption Assay (IC50).
Format: biochemical
Description: This is a functional assay that measures activity of compounds against […]., the active form of KRAS G12C. Recombinant GMPPNP-loaded KRAS G12C (5 nM) was treated with compound at room temperature for 20 minutes in assay buffer (50 mM Tris pH 7.5, 100 mM NaCl, 1 mM MgCl2, 1 mM DTT, 100 μg/ml BSA). Recombinant GST-RAF1 RBD (9 nM) was added, and the reaction mixture was incubated for 20 minutes. SA-Tb (0.25 nM) was added, and the reaction mixture was incubated for 3 hours. HTRF signal was measured (PerkinElmer Envision), the signal ratio (λem 520/λem 495) was calculated, and IC50 values were calculated from the dose-response curve.

Chain of Recombinant GMPPNP-loaded KRAS G12C (KRAS-G12C(ON), active form) (P01116 1-188 isoform P01116-2 G12C): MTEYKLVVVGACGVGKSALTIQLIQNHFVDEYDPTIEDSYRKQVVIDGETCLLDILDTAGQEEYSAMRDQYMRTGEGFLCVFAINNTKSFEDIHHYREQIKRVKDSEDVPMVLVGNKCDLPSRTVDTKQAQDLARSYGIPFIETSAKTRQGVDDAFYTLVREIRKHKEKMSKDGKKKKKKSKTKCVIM

Question: For Cc1cc(N)nc(-c2c(Cl)cc3c(N4[C@@H]5CC[C@H]4[C@H]4CN(C(=O)/C(F)=C/c6nccs6)C[C@H]45)nc(OC[C@]45CCCN4C[C@H](F)C5)nc3c2F)c1C(F)(F)F (atropisomer, axis not shown; (aR)) [Example 17, (Z)-1-((3aR,4S,7R,7aS)-8-((7M)-7-(6-amino-4-methyl-3-(trifluoromethyl)pyridin-2-yl)-6-chloro-8-fluoro-2-(((2R,7aR)-2-fluorotetrahydro-1H-pyrrolizin-7a(5H)-yl)methoxy)quinazolin-4-yl)octahydro-2H-4,7-epiminoisoindol-2-yl)-2-fluoro-3-(thiazol-2-yl)prop-2-en-1-one], which IC50 is on record?
Answer: The IC50 was 5.8 µM.

Question: Which IC50 does the source give for Cc1cc(N)nc(-c2c(Cl)cc3c(N4CCC5C4CCN5C(=O)/C(F)=C/c4nccs4)nc(OC[C@]45CCCN4C[C@H](F)C5)nc3c2F)c1C(F)(F)F (single isomer, unassigned) [Example 25, Isomer 2] here?
Answer: The IC50 was 67.6 µM.

Question: How did the IC50 turn out when Cc1cc(N)nc(-c2c(Cl)cc3c(N[C@H]4C[C@@H](NC(=O)/C(F)=C/c5nccs5)C4)nc(OC[C@]45CCCN4C[C@H](F)C5)nc3c2F)c1C(F)(F)F (atropisomer, axis not shown; (M)) [Example 13, (Z)-N-((1S,3s)-3-(((7M)-7-(6-amino-4-methyl-3-(trifluoromethyl)pyridin-2-yl)-6-chloro-8-fluoro-2-(((2R,7aR)-2-fluorotetrahydro-1H-pyrrolizin-7a(5H)-yl)methoxy)quinazolin-4-yl)amino)cyclobutyl)-2-fluoro-3-(thiazol-2-yl)acrylamide] was run?
Answer: The IC50 was 1.1 µM.

Question: Which IC50 does the source give for Cc1cc(N)nc(-c2c(Cl)cc3c(N4CCC5C(C4)CN5C(=O)/C(F)=C/c4nccs4)nc(OC[C@]45CCCN4C[C@H](F)C5)nc3c2F)c1C(F)(F)F (stereo partly drawn) [Example 16, (Z)-1-(3-((7M)-7-(6-amino-4-methyl-3-(trifluoromethyl)pyridin-2-yl)-6-chloro-8-fluoro-2-(((2R,7aR)-2-fluorotetrahydro-1H-pyrrolizin-7a(5H)-yl)methoxy)quinazolin-4-yl)-3,7-diazabicyclo[4.2.0]octan-7-yl)-2-fluoro-3-(thiazol-2-yl)prop-2-en-1-one] here?
Answer: Its IC50 is 4.2 µM.

Question: How did the IC50 turn out when C#Cc1c(F)ccc2cc(O)cc(-c3c(Cl)cc4c(N5CC6CCC(C5)N6C(=O)/C(F)=C/c5ccccn5)nc(OC[C@@H]5CCCN5C)nc4c3F)c12 (single isomer, unassigned) [Example 20, Isomer 2] was run?
Answer: Its IC50 is greater than 100 µM.

Same assay, conditions: GMPPNP-loaded KRAS G12C 5 nM, GST-RAF1 RBD 9 nM, values in nM, read-out: KRASG12C RAF Disruption Assay (IC50)

Question: With COc1ccc(Cl)cc1-c1ccc2c(N3CCN(C(=O)/C(F)=C/c4ccccn4)[C@@H](CC#N)C3)nc(OC[C@@H]3CCCN3C)nc2c1F [Example 61, 2-((S)-4-(7-(5-chloro-2-methoxyphenyl)-8-fluoro-2-(((S)-1-methylpyrrolidin-2-yl)methoxy)quinazolin-4-yl)-1-((Z)-2-fluoro-3-(pyridin-2-yl)acryloyl)piperazin-2-yl)acetonitrile] as the molecule, how does the IC50 read?
Answer: The IC50 was 2.8 µM.

Question: With C#Cc1cccc2cccc(-c3ccc4c(N5CCN(C(=O)/C(F)=C/c6ccccn6)C[C@@H]5C)nc(OC[C@@]56CCCN5C[C@H](F)C6)nc4c3F)c12 [Example 88, (Z)-1-((S)-4-(7-(8-ethynylnaphthalen-1-yl)-8-fluoro-2-(((2R,7aS)-2-fluorotetrahydro-1H-pyrrolizin-7a(5H)-yl)methoxy)quinazolin-4-yl)-3-methylpiperazin-1-yl)-2-fluoro-3-(pyridin-2-yl)prop-2-en-1-one] as the molecule, how does the IC50 read?
Answer: The IC50 was 0.043 µM.

Question: Cc1cc(N)nc(-c2c(Cl)cc3c(N4CC[C@@H]5CC[C@H](C4)N5C(=O)/C(F)=C/c4nccs4)nc(OC[C@@]45CCCN4C[C@H](F)C5)nc3c2F)c1C(F)(F)F [Example 71, (Z)-1-((1R,6S)-3-(7-(6-amino-4-methyl-3-(trifluoromethyl)pyridin-2-yl)-6-chloro-8-fluoro-2-(((2R,7aS)-2-fluorotetrahydro-1H-pyrrolizin-7a(5H)-yl)methoxy)quinazolin-4-yl)-3,9-diazabicyclo[4.2.1]nonan-9-yl)-2-fluoro-3-(thiazol-2-yl)prop-2-en-1-one] was tested. Which IC50 did it give?
Answer: The IC50 was 9 µM.

Question: C#Cc1cccc2cccc(-c3ccc4c(N5CCN(C(=O)/C(F)=C/c6nccs6)[C@@H](CC#N)C5)nc(OC[C@@]56CCCN5C[C@H](F)C6)nc4c3F)c12 [Example 86, 2-((S)-4-(7-(8-ethynylnaphthalen-1-yl)-8-fluoro-2-(((2R,7aS)-2-fluorotetrahydro-1H-pyrrolizin-7a(5H)-yl)methoxy)quinazolin-4-yl)-1-((Z)-2-fluoro-3-(thiazol-2-yl)acryloyl)piperazin-2-yl)acetonitrile] was tested. Which IC50 did it give?
Answer: The IC50 was 0.044 µM.

Question: Which IC50 does the source give for Cc1ccc2[nH]ncc2c1-c1ccc2c(N3CCN(C(=O)/C(F)=C/c4nccs4)[C@@H](CC#N)C3)nc(OC[C@@H]3CCCN3C)nc2c1F [Example 51, 2-((2S)-1-((Z)-2-fluoro-3-(thiazol-2-yl)acryloyl)-4-(8-fluoro-7-(5-methyl-1H-indazol-4-yl)-2-(((S)-1-methylpyrrolidin-2-yl)methoxy)quinazolin-4-yl)piperazin-2-yl)acetonitrile] here?
Answer: The IC50 was 0.16 µM.

Question: With CN1CCC[C@H]1COc1nc(N2CCN(C(=O)/C(F)=C/c3cnccn3)[C@@H](CC#N)C2)c2ccc(-c3cc(Cl)ccc3OC(F)(F)F)c(F)c2n1 [Example 68, 2-((S)-4-(7-(5-chloro-2-(trifluoromethoxy)phenyl)-8-fluoro-2-(((S)-1-methylpyrrolidin-2-yl)methoxy)quinazolin-4-yl)-1-((Z)-2-fluoro-3-(pyrazin-2-yl)acryloyl)piperazin-2-yl)acetonitrile] as the molecule, how does the IC50 read?
Answer: The IC50 was 20.4 µM.

Question: For Cc1ccc2[nH]ncc2c1-c1ccc2c(N3CCN(C(=O)/C(F)=C/c4ccccn4)[C@@H](CC#N)C3)nc(OC[C@@H]3CCCN3C)nc2c1F [Example 50, 2-((2S)-1-((Z)-2-fluoro-3-(pyridin-2-yl)acryloyl)-4-(8-fluoro-7-(5-methyl-1H-indazol-4-yl)-2-(((S)-1-methylpyrrolidin-2-yl)methoxy)quinazolin-4-yl)piperazin-2-yl)acetonitrile], which IC50 is on record?
Answer: The IC50 was 0.1 µM.

Question: Which IC50 does the source give for Cc1cccc(/C=C(\F)C(=O)N2CCN(c3nc(OC[C@@H]4CCCN4C)nc4c(F)c(-c5cccc6cccc(Cl)c56)ccc34)C[C@@H]2CC#N)n1 [Example 36, 2-((S)-1-((Z)-2-fluoro-3-(6-methylpyridin-2-yl)acryloyl)-4-(8-fluoro-7-(8-chloronaphthalen-1-yl)-2-(((S)-1-methylpyrrolidin-2-yl)methoxy)quinazolin-4-yl)piperazin-2-yl)acetonitrile] here?
Answer: The IC50 was 0.025 µM.

Question: C#Cc1cccc2cccc(-c3ccc4c(N5CCN(C(=O)/C(F)=C/c6ccccn6)[C@@H](CC#N)C5)nc(OC[C@@]56CCCN5C[C@H](F)C6)nc4c3F)c12 [Example 85, 2-((S)-4-(7-(8-ethynylnaphthalen-1-yl)-8-fluoro-2-(((2R,7aS)-2-fluorotetrahydro-1H-pyrrolizin-7a(5H)-yl)methoxy)quinazolin-4-yl)-1-((Z)-2-fluoro-3-(pyridin-2-yl)acryloyl)piperazin-2-yl)acetonitrile] was tested. Which IC50 did it give?
Answer: Its IC50 is 0.025 µM.

Question: Which IC50 does the source give for CN1CCC[C@H]1COc1nc(N2CCN(C(=O)/C(F)=C/c3ncccn3)CC2)c2ccc(-c3cc(O)cc4ccccc34)c(F)c2n1 [Example 32, (S,Z)-2-fluoro-1-(4-(8-fluoro-7-(3-hydroxynaphthalen-1-yl)-2-((1-methylpyrrolidin-2-yl)methoxy)quinazolin-4-yl)piperazin-1-yl)-3-(pyrimidin-2-yl)prop-2-en-1-one] here?
Answer: The IC50 was 0.29 µM.

Question: How did the IC50 turn out when CN1CCC[C@H]1COc1nc(N2C[C@H]3CC[C@@H](C2)N3C(=O)/C(F)=C/c2ccccn2)c2ccc(-c3ccc(F)c4sc(N)nc34)c(F)c2n1 [Example 80, (Z)-1-((1R,5S)-3-(7-(2-amino-7-fluorobenzo[d]thiazol-4-yl)-8-fluoro-2-(((S)-1-methylpyrrolidin-2-yl)methoxy)quinazolin-4-yl)-3,8-diazabicyclo[3.2.1]octan-8-yl)-2-fluoro-3-(pyridin-2-yl)prop-2-en-1-one] was run?
Answer: The IC50 was 0.55 µM.

Question: How did the IC50 turn out when COc1ccc(Cl)cc1-c1ccc2c(N3CCN(C(=O)/C(F)=C/c4nccs4)[C@@H](CC#N)C3)nc(OC[C@@H]3CCCN3C)nc2c1F [Example 62, 2-((S)-4-(7-(5-chloro-2-methoxyphenyl)-8-fluoro-2-(((S)-1-methylpyrrolidin-2-yl)methoxy)quinazolin-4-yl)-1-((Z)-2-fluoro-3-(thiazol-2-yl)acryloyl)piperazin-2-yl)acetonitrile] was run?
Answer: The IC50 was 3.1 µM.

Question: CN1CCC[C@H]1COc1nc(N2CCN(C(=O)/C(F)=C/c3ncccn3)[C@@H](CC#N)C2)c2ccc(-c3cc(Cl)ccc3OC(F)(F)F)c(F)c2n1 [Example 67, 2-((S)-4-(7-(5-chloro-2-(trifluoromethoxy)phenyl)-8-fluoro-2-(((S)-1-methylpyrrolidin-2-yl)methoxy)quinazolin-4-yl)-1-((Z)-2-fluoro-3-(pyrimidin-2-yl)acryloyl)piperazin-2-yl)acetonitrile] was tested. Which IC50 did it give?
Answer: The IC50 was 4.7 µM.

Question: Cc1cc(N)nc(-c2c(Cl)cc3c(N4CC[C@@H]5CC[C@H](C4)N5C(=O)/C(F)=C/c4nccs4)nc(OC[C@]45CCC[C@H]4N(C)CCC5)nc3c2F)c1C(F)(F)F [Example 70, (Z)-1-((1R,6S)-3-(7-(6-amino-4-methyl-3-(trifluoromethyl)pyridin-2-yl)-6-chloro-8-fluoro-2-(((4aS,7aR)-1-methyloctahydro-4aH-cyclopenta[b]pyridin-4a-yl)methoxy)quinazolin-4-yl)-3,9-diazabicyclo[4.2.1]nonan-9-yl)-2-fluoro-3-(thiazol-2-yl)prop-2-en-1-one] was tested. Which IC50 did it give?
Answer: Its IC50 is 7.9 µM.
